Test results from patent US7414049B2, “4-oxo-2,3,4,5-tetrahydro-benzo[b][1,4]diazepine derivatives” (Hoffmann-La Roche Inc., priority 2006, dated 2008).
Converted amounts (≈) assume the structure as drawn.

Assays:
[1] = Microsome incubation, metabolic stability (human); format: in vitro ADME; conditions: for microsomal CLint at 10 μM: pH 7.4, human liver microsomes 2.0 mg prot/mL, test compound 10 μM, 37° C., read-out: Intrinsic clearance (human)
Description: The compounds of formula I of the present invention are further characterized by high metabolic stability. This parameter is a prerequisite for good bioavailability, which is necessary to obtain medicaments with acceptable in-vivo activity. The metabolic stability has been tested by the following method:
Incubation mixtures consisted of liver microsomes (rat 1.0 mg prot/mL or human 2.0 mg prot/mL), test compound 10 μM, MgCl2 (3.3 mM), and an NADPH regenerating system consisting of glucose-6-phosphate dehydrogenase, NADPH and glucose-6-phosphate (equivalent to 1 mM NADPH) in a total volume of 1.0 mL of potassium phosphate buffer 100 mM pH 7.4. Reactions were initiated by addition of the NADPH regenerating system at 37° C. At the time of 1, 5, 9, 13, 17, 21, 25, and 29 min a 5 μL aliquot was directly analysed on a HPLC-MS/MS system consisting of a HP 1100 quaternary pump with degasser and a PE-Sciex API-2000 MS/MS spectrometer. The analytical column was a Waters Symmetry Shield RP8 (2.1*50 mm with a […] particle size). A polarity non linear gradient from phase A (MeOH/Ac. Form. 1% 20/80) to phase B (MeOH) was applied for a total run time of 2 minutes at a flow rate of 0.25 mL/min. The PE-Sciex API-2000 MS/MS spectrometer was used for detection of the parent compound. In vivo metabolic clearance was predicted according to published procedures [Houston, Biochem. Pharmacol. 47:1469-1479 (1994)]. In brief, the intrinsic clearance (Clearance, see table below) is calculated from the measured in vitro half-life taking into account incubation volume and microsomal protein used for the in vitro incubation. The intrinsic clearance is expressed in terms of μl/min/mg microsomal protein. For in vivo extrapolations, the hepatic extraction ratio (E) was calculated. Here it is reported the % MAB value which is equal to 1-E. The MAB (maximal achievable bioavailability) values express the maximal bioavailability that one can achieve with the given clearance values.

[2] = Microsome incubation, metabolic stability (mouse); format: in vitro ADME; conditions: for microsomal CLint at 10 μM: pH 7.4, liver microsomes, test compound 10 μM, 37° C., read-out: Intrinsic clearance (mouse)
[3] = THESA assay, thermodynamic solubility; format: physicochemical; conditions: 22.5 °C, aqueous buffer, thermodynamic from solid, 50 mM phosphate buffer
Description: In addition, the compounds of the present invention have been tested in a THESA assay for determination of the thermodynamic solubility.
Approximately 2 mg of each compound was added in excess to a 50 mM phosphate buffer, at room temperature (22.5±1° C.). Each sample was placed in a microanalysis tube, which was sonicated for 1 h and agitated for 2 h. All suspensions were left overnight. At the next day all pHs were measured with a pH-meter and the samples filtered with a micronic filterplate (MSGVN2250) to separate the solid material from the solution. Then, all solutions were analyzed by HPLC. The calibration line was established by different concentrations of the compound in DMSO. From this regression equation the solubility of the compound was determined.

[4] = maximal achievable bioavailability = 1-E, extrapolated from intrinsic clearance
[5] = comparison table, room temperature

| SMILES | MAB (human) [1, 4] | microsomal CLint at 10 μM [1] | MAB (mouse) [2, 4] | microsomal CLint at 10 μM [2] | MAB (human) ([1]; comparison table) | MAB (mouse) ([2]; comparison table) | solubility thermodynamic ([3]; room temperature (22.5±1° C.)) | solubility thermodynamic [3, 5] |
| --- | --- | --- | --- | --- | --- | --- | --- | --- |
| CC(O)(C(=O)NCC(F)(F)C(F)(F)F)C(=O)N[C@H]1CN(CCO)c2ccccc2NC1=O (mixture of isomers) [Example 7, (RS)-2-Hydroxy-N-[(S)-1-(2-hydroxy-ethyl)-4-oxo-2,3,4,5-tetrahydro-1H-benzo[b][1,4]diazepin-3-yl]-2-methyl-N′-(2,2,3,3,3-pentafluoro-propyl)-malonamide] | 74.9% | 5.2 µL/min/mg | 49.3% | 32.5 µL/min/mg | – | – | – | – |
| CC(C(=O)NCC(F)(F)C(F)(F)F)C(=O)N[C@H]1CN(C(=O)OCC2CC2)c2ccccc2N(CC(F)(F)F)C1=O (stereo partly drawn) [reference compound] | – | – | – | – | 26.8% | 47.6% | – | – |
| CC(O)(C(=O)NCC(F)(F)C(F)(F)F)C(=O)N[C@H]1CN(C(=O)OCC(F)(F)F)c2cc(F)c(F)cc2NC1=O (single isomer, unassigned) [Example 1, (S)-7,8-Difluoro-3-[(R or S)-2-hydroxy-2-(2,2,3,3,3-pentafluoro-propylcarbamoyl)-propionylamino]-4-oxo-2,3,4,5-tetrahydro-benzo[b][1,4]diazepine-1-carboxylic acid 2,2,2-trifluoro-ethyl ester and (S)-7,8-Difluoro-3-[(S or R)-2-hydroxy-2-(2,2,3,3,3-pentafluoro-propylcarbamoyl)-propionylamino]-4-oxo-2,3,4,5-tetrahydro-benzo[b][1,4]diazepine-1-carboxylic acid 2,2,2-trifluoro-ethyl ester] | 99.7% | 0.05 µL/min/mg | 58.5% | 22.4 µL/min/mg | – | – | 77 µg/mL (≈ 131 µM) | – |
| CC(O)(C(=O)NCC(F)(F)C(F)(F)F)C(=O)N[C@H]1CN(C(=O)OCCO)c2ccccc2N(CCO)C1=O (single isomer, unassigned) [Example 14, (S)-5-(2-Hydroxy-ethyl)-3-[(S or R)-2-hydroxy-2-(2,2,3,3,3-pentafluoro-propylcarbamoyl)-propionylamino]-4-oxo-2,3,4,5-tetrahydro-benzo[b][1,4]diazepine-1-carboxylic acid 2-hydroxy-ethyl ester] | 53.3% | 13.6 µL/min/mg | 72.1% | 12.3 µL/min/mg | – | – | 5180 µg/mL (≈ 9320 µM) | – |
| CC(O)(C(=O)NCC(F)(F)C(F)(F)F)C(=O)N[C@H]1CN(CCCC(F)(F)F)c2ccccc2NC1=O (single isomer, unassigned) [Example 6, (R or S)-2-Hydroxy-2-methyl-N-[(S)-4-oxo-1-(4,4,4-trifluoro-butyl)-2,3,4,5-tetrahydro-1H-benzo[b][1,4]diazepin-3-yl]-N′-(2,2,3,3,3-pentafluoro-propyl)-malonamide and (S or R)-2-Hydroxy-2-methyl-N-[(S)-4-oxo-1-(4,4,4-trifluoro-butyl)-2,3,4,5-tetrahydro-1H-benzo[b][1,4]diazepin-3-yl]-N′-(2,2,3,3,3-pentafluoro-propyl)-malonamide] | 49.4% | 15.9 µL/min/mg | 25.0% | 94.9 µL/min/mg | – | – | 124 µg/mL (≈ 232 µM) | – |
| CC(O)(C(=O)NCC(F)(F)C(F)(F)F)C(=O)N[C@H]1CN(CCC(F)(F)F)c2ccccc2NC1=O (single isomer, unassigned) [Example 5, (R or S)-2-Hydroxy-2-methyl-N-[(S)-4-oxo-1-(3,3,3-trifluoro-propyl)-2,3,4,5-tetrahydro-1H-benzo[b][1,4]diazepin-3-yl]-N′-(2,2,3,3,3-pentafluoro-propyl)-malonamide and (S or R)-2-Hydroxy-2-methyl-N-[(S)-4-oxo-1-(3,3,3-trifluoro-propyl)-2,3,4,5-tetrahydro-1H-benzo[b][1,4]diazepin-3-yl]-N′-(2,2,3,3,3-pentafluoro-propyl)-malonamide] | 45.5% | 18.6 µL/min/mg | 10.8% | 262 µL/min/mg | – | – | 67 µg/mL (≈ 129 µM) | – |
| CC(O)(C(=O)NCC(F)(F)C(F)(F)F)C(=O)N[C@H]1CN(C(=O)OCC(F)(F)F)c2ccccc2N(CCO)C1=O (single isomer, unassigned) [Example 12, (S)-5-(2-Hydroxy-ethyl)-3-[(S or R)-2-hydroxy-2-(2,2,3,3,3-pentafluoro-propylcarbamoyl) -propionylamino]-4-oxo-2,3,4,5-tetrahydro-benzo[b][1,4]diazepine-1-carboxylic acid 2,2,2-trifluoro-ethyl ester] | 84.3% | 2.9 µL/min/mg | 97.2% | 0.9 µL/min/mg | – | – | 3230 µg/mL (≈ 5430 µM) | – |
| CC(O)(C(=O)NCC(F)(F)C(F)(F)F)C(=O)N[C@H]1CN(CC(F)(F)F)c2ccccc2NC1=O (single isomer, unassigned) [Example 4, (R or S)-2-Hydroxy-2-methyl-N-[(S)-4-oxo-1-(2,2,2-trifluoro-ethyl)-2,3,4,5-tetrahydro-1H-benzo[b][1,4]diazepin-3-yl]-N′-(2,2,3,3,3-pentafluoro-propyl)-malonamide and (S or R)-2-Hydroxy-2-methyl-N-[(S)-4-oxo-1-(2,2,2-trifluoro-ethyl)-2,3,4,5-tetrahydro-1H-benzo[b][1,4]diazepin-3-yl]-N′-(2,2,3,3,3-pentafluoro-propyl)-malonamide] | 55.5% | 12.5 µL/min/mg | 19.6% | 130 µL/min/mg | 55.5% | 19.6% | – | – |
| CC(O)(C(=O)NCC(F)(F)C(F)(F)F)C(=O)N[C@H]1CN(C(=O)OCCCC(F)(F)F)c2ccccc2N(CCCC(F)(F)F)C1=O (single isomer, unassigned) [Example 13] | 87.4% | 2.2 µL/min/mg | 100% | – | – | – | – | – |
| CC(C)(C(=O)NCC(F)(F)C(F)(F)F)C(=O)N[C@H]1CN(C(=O)OCC(F)(F)F)c2ccccc2N(CC(F)(F)F)C1=O [reference compound] | – | – | – | – | 19.6% | 28.4% | – | 16 µg/mL (≈ 25.4 µM) |
| CC(C)(C(=O)NCC(F)(F)C(F)(F)F)C(=O)N[C@H]1CN(CC(F)(F)F)c2ccccc2NC1=O [reference compound] | – | – | – | – | 43.1% | 21.8% | – | < 1 µg/mL |
| CC(O)(C(=O)NCC(F)(F)C(F)(F)F)C(=O)N[C@H]1CN(CC(F)(F)F)c2ccc(F)cc2NC1=O (single isomer, unassigned) [Example 3, N-[(S)-7-Fluoro-4-oxo-1-(2,2,2-trifluoro-ethyl)-2,3,4,5-tetrahydro-1H-benzo[b][1,4]diazepin-3-yl]-(R or S)-2-hydroxy-2-methyl-N′-(2,2,3,3,3-pentafluoro-propyl)-malonamide and N-[(S)-7-Fluoro-4-oxo-1-(2,2,2-trifluoro-ethyl)-2,3,4,5-tetrahydro-1H-benzo[b][1,4]diazepin-3-yl]-(S or R)-2-hydroxy-2-methyl-N′-(2,2,3,3,3-pentafluoro-propyl)-malonamide] | 56.7% | 11.9 µL/min/mg | 20.1% | 126 µL/min/mg | – | – | – | – |
| CC(O)(C(=O)NCC(F)(F)C(F)(F)F)C(=O)N[C@H]1CN(C(=O)OCC(F)(F)F)c2cc(F)c(F)cc2N(CC(F)(F)F)C1=O (single isomer, unassigned) [Example 2] | 54.3% | 13.1 µL/min/mg | 83.0% | 6.5 µL/min/mg | – | – | – | – |
